Measurements taken from patent publication US8952054B2, “Small molecule inhibitors of MUC1 and methods of identifying the same” (Dana-Farber Cancer Institute, Inc., priority 2010, dated 2015).

Columns and labels:
MCF-10A cells = experiment: MCF-10A cell number (MTS), caspase-9 cleavage and PI uptake; assay type: cell-based, human; details: 3 d
Experimental: FIGS. 13A-D—Apigenin downregulates MUC1 and confers death of MCF-10A cells. (FIG. 13A) MCF-10A cells were treated with the indicated concentrations of apigenin and baicalein for 3 d, washed and then treated for an additional 3 d. Lysates were immunoblotted with the indicated antibodies. (FIG. 13B) MCF-10A cells were treated with the indicated concentrations apigenin (circles) and baicalein (squares) for 3 d. Viable cell number was determined by the MTS assay. The results (mean+SD of 3 determinations) are expressed as percentage of control growth in the presence of DMSO. (FIG. 13C) MCF-10A cells were treated with DMSO, 75 μM apigenin or 75 μM baicalein for 3 d. Lysates were subjected to immunoblotting with the indicated antibodies. (FIG. 13D) MCF-10A cells were treated with DMSO, 75 μM apigenin or 75 μM baicalein for 3 d, stained with propidium iodide and analyzed by flow cytometry.

[1] = system: MUC1-expressing cancer cells; experiment: Secondary screen against MUC1-expressing cancer cells in vitro; assay type: cell-based; details: legend: ZR-75-1 breast carcinoma cells, 2 days, anti-MUC1-C immunoblot
Experimental: ZR-75-1 breast carcinoma cells were treated with […] Kaempterol for 2 days. Total cell lysates were then analyzed by immunoblotting with anti-MUC1-C antibody (FIG. 17A) or with anti-Actin antibodies (FIG. 17B).
Initial screens were performed in the presence of compounds at a concentration of 100 μM.

MUC1-C = biological target: T1, MUC1-C (Homo sapiens, UniProt P15941); experiment: Immunoblot of whole cell and nuclear MUC1-C levels in ZR-75-1 cells; assay type: cell-based; design: Human ZR-75-1 and MCF-7 breast cancer cells overexpress endogenous MUC1; endogenous in cells; host or cells: ZR-75-1; MCF-7; details: ZR-75-1, 5 μM peptide, 3 d; for nuclear MUC1-C levels: nuclear lysates; for cellular MUC1-C levels: whole cell lysates
T1 sequence (P15941 1098-1255 limits assumed): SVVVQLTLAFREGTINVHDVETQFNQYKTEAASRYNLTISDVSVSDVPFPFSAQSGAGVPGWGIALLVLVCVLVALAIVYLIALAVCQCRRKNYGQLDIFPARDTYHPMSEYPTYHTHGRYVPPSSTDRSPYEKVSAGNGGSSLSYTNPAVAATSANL
Experimental: FIGS. 2A-C. MUC1/CQC peptide blocks nuclear localization of MUC1-C. (FIG. 2A) ZR-75-1 cells were incubated with 5 μM FITC-labeled MUC1/CQC peptide for the indicated times and then analyzed by flow cytometry. The mean fluorescence index (MFI) is included in each of the panels. (FIGS. 2B-C) ZR-75-1 (FIG. 2B) and MCF-7 (FIG. 2C) cells were incubated in the presence of 5 μM MUC1/CQC or MUC1/AQA peptide for 3 d. Whole cell lysates (WCL) (left panels) and nuclear lysates (right panels) were immunoblotted with the indicated antibodies.
Whole cell and nuclear lysates were prepared as described (Leng et al., 2007). Soluble proteins were subjected to immunoprecipitation with anti-Flag (Sigma, St. Louis, Mo.). Immunoprecipitates and soluble proteins were analyzed by immunoblotting with anti-His (Cell Signaling Technology, Danvers, Mass.), anti-GFP (Millipore, Danvers, Mass.), anti-Flag, anti-MUC1-C (Ab1; NeoMarkers, Fremont, Calif.), anti-lamin B (EMD, La Jolla, Calif.) or anti-β-actin (Sigma). Reactivity was detected with horseradish peroxidase-conjugated second antibodies and chemiluminescence.

[2] = system: ZR-75-1 breast tumor xenografts; experiment: ZR-75-1 breast tumor xenografts in nude mice; assay type: in vivo, Balb-c nu/nu mice
Experimental: FIGS. 5A-C. MUC1/CQC peptide blocks growth of ZR-75-1 breast tumor xenografts. (FIG. 5A) Four to six week-old female Balb-c nu/nu mice were implanted with 17-β-estradiol plugs. After 24 h, ZR-75-1 breast cancer cells (imbedded in matrigel) were injected subcutaneously in the flank. When tumors were ˜150 mm3, the mice were paired matched into groups and injected intraperitoneally with PBS (vehicle control; closed squares), 50 mg/kg MUC1/AQA peptide (control peptide; open squares) or 10 mg/kg MUC1/CQC peptide (closed triangles) daily for 21 d. Another group was treated with 50 mg/kg MUC1/CQC peptide daily for 6 d (open triangles). Mice were weighed twice weekly and tumor measurements were performed every 4 d. (FIGS. 5B and 5C). On day 24 (asterisk), tumors harvested from the control group and the group treated with 50 mg/kg/d×6 d were stained with H&E (FIG. 5B) and with an antibody against MUC1 (FIG. 5C).
To determine if administration of the MUC1/CQC peptide is associated with effects on body weight, five female nude (nu/nu) mice were injected intraperitoneally (IP) once each day at a dose of 50 mg/kg. […] To assess anti-tumor activity, ZR-75-1 cells (1×10^7) were implanted subcutaneously into the flanks of nude mice. After 12 d, mice bearing tumors of approximately 150 mm^3 were treated with the MUC1/CQC peptide at doses of 10 and 50 mg/kg/d. As controls, mice were treated with vehicle alone or with the MUC1/AQA peptide. Administration of the MUC1/CQC peptide at 10 mg/kg/d×21 d slowed growth as compared to that obtained with the MUC1/AQA peptide given at 50 mg/kg/d (FIG. 5A). […] Consequently, treatment was stopped and the mice were monitored for regrowth. […] To assess in part the basis for the activity, tumors harvested from control and treated mice were examined by histopathology. […] Sections of the tumors were also stained with an antibody against MUC1.

Compound	caspase-9 cleavage (MCF-10A cells; 75 μM)	cell membrane integrity (PI uptake) (MCF-10A cells; 75 μM)	cell number (MTS) (MCF-10A cells)	inhibition (FIGS. 17A-B) [1]	nuclear MUC1-C levels (MUC1-C)	cellular MUC1-C levels (MUC1-C)	MUC1 expression in tumor sections (antibody staining) ([2]; versus control tumors)	tumor growth ([2]; 10 mg/kg/d × 21 d IP, versus MUC1/AQA 50 mg/kg/d)	tumor growth ([2]; 50 mg/kg/d IP, initial 7 d of treatment)	tumor regrowth after treatment stopped ([2]; 50 mg/kg/d group, next 17 d)	tumor histopathology (H&E) ([2]; 10 and 50 mg/kg, versus vehicle or MUC1/AQA)
O=c1cc(-c2ccc(O)cc2)oc2cc(O)cc(O)c12 [Apigenin, 4′,5,7-trihydroxyflavone]	caspase-9 cleavage	loss of cell membrane integrity	decreased MCF-10A cell number	showed inhibition							
O=c1cc(-c2ccccc2)oc2cc(O)c(O)c(O)c12 [Baicalein, 5,6,7-trihydroxyflavone, reference compound]	not		substantially less effective	did not							
MUC1/AQA: control peptide in which the CQC motif was altered to AQA (SEQ ID NO: 11) (AQARRKNYGQLDIFP) [reference compound]					not	no effect	marked down-regulation of MUC1 expression				
CC[C@H](C)[C@H](NC(=O)[C@H](CC(=O)O)NC(=O)[C@H](CC(C)C)NC(=O)[C@H](CCC(N)=O)NC(=O)CNC(=O)[C@H](Cc1ccc(O)cc1)NC(=O)[C@H](CC(N)=O)NC(=O)[C@H](CCCCN)NC(=O)[C@H](CCCNC(=N)N)NC(=O)[C@H](CCCNC(=N)N)NC(=O)[C@H](CS)NC(=O)[C@H](CCC(N)=O)NC(=O)[C@H](CS)NC(=O)[C@@H](CCCNC(=N)N)NC(=O)[C@@H](CCCNC(=N)N)NC(=O)[C@@H](CCCNC(=N)N)NC(=O)[C@@H](CCCNC(=N)N)NC(=O)[C@@H](CCCNC(=N)N)NC(=O)[C@@H](CCCNC(=N)N)NC(=O)[C@@H](CCCNC(=N)N)NC(=O)[C@@H](CCCNC(=N)N)NC(=O)[C@H](N)CCCNC(=N)N)C(=O)N[C@@H](Cc1ccccc1)C(=O)N1CCC[C@H]1C(=O)O [MUC1/CQC]					decreases in nuclear MUC1-C levels	no effect		slowed growth	blocked growth	no detectable growth	markedly necrotic
